Laboratory results: patent publication US9284333B2, “Fused pyrroledicarboxamides and their use as pharmaceuticals” (SANOFI, priority 2012, dated 2016)

target: Human TASK-1 channels (Homo sapiens (Human), UniProt O14649); test: Determination of the activity on the TASK-1 channel in Xenopus oocytes (two-microelectrode voltage clamp); assay type: cell-based; conditions: compound concentration 5 μM
Outline: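 Xenopus oocytes were injected with human TASK-1 cRNA and recorded two days later by two-microelectrode voltage clamp, holding at −90 mV with 500 ms steps to 40 mV. Superfusion used ND96, pH 7.4, at room temperature, with rising compound concentrations; percentage inhibition of control current was fitted to a dose-response curve for IC50.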

Chain of Human TASK-1 channels (O14649 whole entry, the tested form may be a part): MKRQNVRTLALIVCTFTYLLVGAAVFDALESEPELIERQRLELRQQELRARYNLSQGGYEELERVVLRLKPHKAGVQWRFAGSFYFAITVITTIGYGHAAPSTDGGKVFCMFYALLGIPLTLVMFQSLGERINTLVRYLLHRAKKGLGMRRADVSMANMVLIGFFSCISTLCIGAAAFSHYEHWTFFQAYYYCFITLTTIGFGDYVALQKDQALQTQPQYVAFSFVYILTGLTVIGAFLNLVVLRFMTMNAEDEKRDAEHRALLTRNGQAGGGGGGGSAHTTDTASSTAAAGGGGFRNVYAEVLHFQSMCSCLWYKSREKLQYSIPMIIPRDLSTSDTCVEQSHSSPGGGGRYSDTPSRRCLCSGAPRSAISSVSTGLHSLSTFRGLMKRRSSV

`CC[C@H](NC(=O)c1cc(C(=O)N2CCC[C@@H]2C)n2c1COCC2)c1c(F)cc(C(F)(F)F)cc1F` [16cm, 6-((S)-2-Methyl-pyrrolidine-1-carbonyl)-3,4-dihydro-1H-pyrrolo[2,1-c][1,4]oxazine-8-carboxylic acid [(S)-1-(2,6-difluoro-4-trifluoromethyl-phenyl)-propyl]-amide] showed an inhibition at 5 µM of 85%.

same assay, conditions: human TASK-1 expressed in Xenopus oocytes, room temperature; read-out: IC50 value for TASK-1 inhibition

Compared with `CC[C@@H](NC(=O)c1cc(C(=O)N2CCC[C@@H]2C)n2c1COCC2)c1cc(F)c(C#N)c(F)c1` [16ca, 6-((S)-2-Methyl-pyrrolidine-1-carbonyl)-3,4-dihydro-1H-pyrrolo[2,1-c][1,4]oxazine-8-carboxylic acid [(R)-1-(4-cyano-3,5-difluoro-phenyl)-propyl]-amide], `CC[C@@H](NC(=O)c1cc(C(=O)N2CCC[C@@H]2C)n2c1COCC2)c1ccc(F)cc1` [16az, 6-((S)-2-Methyl-pyrrolidine-1-carbonyl)-3,4-dihydro-1H-pyrrolo[2,1-c][1,4]oxazine-8-carboxylic acid [(R)-1-(4-fluoro-phenyl)-propyl]-amide] is 2.8-fold lower in IC50: 340 nM for the first, 120 nM for the second.

Compared with `CC[C@@H](NC(=O)c1cc(C(=O)N2CCCC2)n2c1COCC2)c1ccccc1C(F)(F)F` [16da, 6-(Pyrrolidine-1-carbonyl)-3,4-dihydro-1H-pyrrolo[2,1-c][1,4]oxazine-8-carboxylic acid [(R)-1-(2-trifluoromethyl-phenyl)-propyl]-amide], `CC[C@@H](NC(=O)c1cc(C(=O)N2CCC[C@@H]2C)n2c1COCC2)c1ccccc1Cl` [16q, 6-((S)-2-Methyl-pyrrolidine-1-carbonyl)-3,4-dihydro-1H-pyrrolo[2,1-c][1,4]oxazine-8-carboxylic acid [(R)-1-(2-chloro-phenyl)-propyl]-amide] is 6.9-fold lower in IC50: 440 nM for the first, 64 nM for the second.

First: CC[C@@H](NC(=O)c1cc(C(=O)N[C@H](C)c2ccc(F)cc2)c2n1CCS2)c1ccccc1 [16ku, 2,3-Dihydro-pyrrolo[2,1-b]thiazole-5,7-dicarboxylic acid 7-{[(R)-1-(4-fluoro-phenyl)-ethyl]-amide} 5-[((R)-1-phenyl-propyl)-amide]]
Second: CC[C@@H](NC(=O)c1cc(C(=O)N[C@H](C)c2ccc(F)cc2)n2c1CSCC2)c1ccccc1 [16la, 3,4-Dihydro-1H-pyrrolo[2,1-c][1,4]thiazine-6,8-dicarboxylic acid 6-{[(R)-1-(4-fluoro-phenyl)-ethyl]-amide} 8-[((R)-1-phenyl-propyl)-amide]]
The IC50 of the first is 1.7-fold lower: 87 nM for the first, 150 nM for the second.

`CC[C@@H](NC(=O)c1cc(C(=O)N[C@H](C)c2ccc(F)cc2)n2c1COCC2)c1ccc(OC)nc1` [16du] and `CC[C@H](NC(=O)c1cc(C(=O)N[C@H](C)c2ccc(F)cc2)c2n1CCOC2)c1ccccc1` [16jp, 3,4-Dihydro-1H-pyrrolo[2,1-c][1,4]oxazine-6,8-dicarboxylic acid 8-{[(R)-1-(4-fluoro-phenyl)-ethyl]-amide} 6-[((S)-1-phenyl-propyl)-amide]] are the same in IC50: 220 nM for the first, 220 nM for the second.

Going from `CC[C@@H](NC(=O)c1cc(C(=O)N2CCC[C@@H]2C)n2c1COCC2)c1cnc(C(F)(F)F)cc1Cl` [16br, 6-((S)-2-Methyl-pyrrolidine-1-carbonyl)-3,4-dihydro-1H-pyrrolo[2,1-c][1,4]oxazine-8-carboxylic acid [(R)-1-(4-chloro-6-trifluoromethyl-pyridin-3-yl)-propyl]-amide] to `CC[C@H](NC(=O)c1cc(C(=O)N2CCC[C@@H]2C)n2c1COCC2)c1cnc(C(F)(F)F)cc1C(F)(F)F` [16bx, 6-((S)-2-Methyl-pyrrolidine-1-carbonyl)-3,4-dihydro-1H-pyrrolo[2,1-c][1,4]oxazine-8-carboxylic acid [(S)-1-(4,6-bis-trifluoromethyl-pyridin-3-yl)-propyl]-amide], the IC50 falls from 880 nM to 480 nM (1.8-fold). The second is the more potent here.

Going from `CC[C@@H](NC(=O)c1cc(C(=O)N[C@H](CC)c2cccc(NS(C)(=O)=O)c2)n2c1COCC2)c1ccccc1` [16ri, 3,4-Dihydro-1H-pyrrolo[2,1-c][1,4]oxazine-6,8-dicarboxylic acid 6-{[(R)-1-(3-methanesulfonylamino-phenyl)-propyl]-amide} 8-[((R)-1-phenyl-propyl)-amide]] to `CC[C@@H](NC(=O)c1cc(C(=O)N[C@H](CC)c2ccc(OC)nc2)n2c1COCC2)c1ccccc1` [16j, 3,4-Dihydro-1H-pyrrolo[2,1-c][1,4]oxazine-6,8-dicarboxylic acid 6-{[(R)-1-(6-methoxy-pyridin-3-yl)-propyl]-amide} 8-[((R)-1-phenyl-propyl)-amide]], the IC50 falls from 4300 nM to 200 nM (22-fold).

First: CC[C@@H](NC(=O)c1cc(C(=O)NCc2cncc(F)c2)n2c1COCC2)c1ccccc1 [16gu, 3,4-Dihydro-1H-pyrrolo[2,1-c][1,4]oxazine-6,8-dicarboxylic acid 6-[(5-fluoro-pyridin-3-ylmethyl)-amide] 8-[((R)-1-phenyl-propyl)-amide]]
Second: CC[C@@H](NC(=O)c1cc(C(=O)Nc2cnoc2)c2n1CCOC2)c1ccccc1 [16jv, 3,4-Dihydro-1H-pyrrolo[2,1-c][1,4]oxazine-6,8-dicarboxylic acid 8-isoxazol-4-ylamide 6-[((R)-1-phenyl-propyl)-amide]]
The IC50 of the first is 3-fold higher: 640 nM for the first, 210 nM for the second. The second is the more potent here.

Compared with `CC[C@@H](NC(=O)c1cc(C(=O)N2CCN(c3ccccn3)C[C@@H]2C)n2c1COCC2)c1ccccc1` [16fs, 6-((S)-2-Methyl-4-pyridin-2-yl-piperazine-1-carbonyl)-3,4-dihydro-1H-pyrrolo[2,1-c][1,4]oxazine-8-carboxylic acid ((R)-1-phenyl-propyl)-amide], `CC[C@@H](NC(=O)c1cc(C(=O)N2CCN(CCC(F)(F)F)C[C@@H]2C)n2c1COCC2)c1ccccc1` [16ft, 6-[(S)-2-Methyl-4-(3,3,3-trifluoro-propyl)-piperazine-1-carbonyl]-3,4-dihydro-1H-pyrrolo[2,1-c][1,4]oxazine-8-carboxylic acid ((R)-1-phenyl-propyl)-amide] is 5.4-fold higher in IC50: 670 nM for the first, 3600 nM for the second.

Compared with `CC[C@@H](NC(=O)c1cc(C(=O)N2CCC[C@@H]2C)n2c1COCC2)c1cccnc1C(F)(F)F` [16r, 6-((S)-2-Methyl-pyrrolidine-1-carbonyl)-3,4-dihydro-1H-pyrrolo[2,1-c][1,4]oxazine-8-carboxylic acid [(R)-1-(2-trifluoromethyl-pyridin-3-yl)-propyl]-amide], `CC[C@@H](NC(=O)c1cc(C(=O)N2CCC[C@@H]2C)n2c1COCC2)c1ccncc1Cl` [16bw, 6-((S)-2-Methyl-pyrrolidine-1-carbonyl)-3,4-dihydro-1H-pyrrolo[2,1-c][1,4]oxazine-8-carboxylic acid [(R)-1-(3-chloro-pyridin-4-yl)-propyl]-amide] is 1.6-fold lower in IC50: 1900 nM for the first, 1200 nM for the second. The second is the more potent here.

Going from `CC[C@@H](NC(=O)c1cc(C(=O)NC2CC2)n2c1COCC2)c1ccccc1` [16gi, 3,4-Dihydro-1H-pyrrolo[2,1-c][1,4]oxazine-6,8-dicarboxylic acid 6-cyclopropylamide 8-[((R)-1-phenyl-propyl)-amide]] to `CC[C@@H](NC(=O)c1cc(C(=O)N2CCC[C@@H]2C)c2n1CCOC2)c1ccccc1` [16ki, 8-((S)-2-Methyl-pyrrolidine-1-carbonyl)-3,4-dihydro-1H-pyrrolo[2,1-c][1,4]oxazine-6-carboxylic acid ((R)-1-phenyl-propyl)-amide], the IC50 falls from 1300 nM to 200 nM (6.5-fold).

First: C[C@H](NC(=O)c1cc(C(=O)N[C@H](C)c2ccc(F)cc2)n2c1COCC2)c1ncccn1 (racemic) [16dx, 3,4-Dihydro-1H-pyrrolo[2,1-c][1,4]oxazine-6,8-dicarboxylic acid 6-{[(R)-1-(4-fluoro-phenyl)-ethyl]-amide} 8-[((S)-1-pyrimidin-2-yl-ethyl)-amide]]
Second: CC[C@@H](NC(=O)c1cc(C(=O)N[C@H](C)c2ccc(F)cc2)n2c1CSC2)c1ccccc1 [16ky, 1H-Pyrrolo[1,2-c]thiazole-5,7-dicarboxylic acid 5-{[(R)-1-(4-fluoro-phenyl)-ethyl]-amide} 7-[((R)-1-phenyl-propyl)-amide]]
The IC50 of the first is 36-fold higher: 1200 nM for the first, 33 nM for the second. The second is the more potent here.

Going from `CC[C@@H](NC(=O)c1cc(C(=O)N2CCC[C@@H]2C)n2c1COCC2)c1ccc(Br)s1` [16bg, 6-((S)-2-methyl-pyrrolidine-1-carbonyl)-3,4-dihydro-1H-pyrrolo[2,1-c][1,4]oxazine-8-carboxylic acid [(R)-1-(5-bromo-thiophen-2-yl)-propyl]-amide] to `CC[C@@H](NC(=O)c1cc(C(=O)N2CCC[C@@H]2C)n2c1COCC2)c1ccc(C#N)s1` [16rd, 6-((S)-2-Methyl-pyrrolidine-1-carbonyl)-3,4-dihydro-1H-pyrrolo[2,1-c][1,4]oxazine-8-carboxylic acid [(R)-1-(5-cyano-thiophen-2-yl)-propyl]-amide], the IC50 rises from 280 nM to 450 nM (1.6-fold). The first is the more potent here.

Compared with `CC[C@@H](NC(=O)c1cc(C(=O)N2CCC[C@@H]2CNC(C)=O)n2c1COCC2)c1ccccc1` [16fh, 6-[(R)-2-(Acetylamino-methyl)-pyrrolidine-1-carbonyl]-3,4-dihydro-1H-pyrrolo[2,1-c][1,4]oxazine-8-carboxylic acid ((R)-1-phenyl-propyl)-amide], `CC[C@@H](NC(=O)c1cc(C(=O)N2CCC[C@@H]2C(C)OC)n2c1COCC2)c1ccccc1` (stereo partly drawn) [16ez, 6-[(R)-2-(1-Methoxy-ethyl)-pyrrolidine-1-carbonyl]-3,4-dihydro-1H-pyrrolo[2,1-c][1,4]oxazine-8-carboxylic acid ((R)-1-phenyl-propyl)-amide] is 10-fold lower in IC50: 5200 nM for the first, 500 nM for the second. The second is the more potent here.

Compared with `CC[C@@H](NC(=O)c1cc(C(=O)N2CCC[C@@H]2C)n2c1COCC2)c1ccc(F)cc1Cl` [16u, 6-((S)-2-Methyl-pyrrolidine-1-carbonyl)-3,4-dihydro-1H-pyrrolo[2,1-c][1,4]oxazine-8-carboxylic acid [(R)-1-(2-chloro-4-fluoro-phenyl)-propyl]-amide], `CC[C@@H](NC(=O)c1cc(C(=O)NCc2cnccn2)c2n1CCOC2)c1ccc(F)cc1Cl` [16ko, 3,4-Dihydro-1H-pyrrolo[2,1-c][1,4]oxazine-6,8-dicarboxylic acid 6-{[(R)-1-(2-chloro-4-fluoro-phenyl)-propyl]-amide} 8-[(pyrazin-2-ylmethyl)-amide]] is 6.3-fold higher in IC50: 49 nM for the first, 310 nM for the second. The first is the more potent here.
